The target of test [1] is T1, contracturing effect of histamine (Cavia porcellus, UniProt P31389).
T1 construct: Segments measuring 5-6 cm were drawn form the end portion of the small intestine; from tissue; host or cells: guinea pig terminal small intestine (ileum)
The test is described as follows: antihistaminic activity in vitro (contracturing effect of histamine on isolated guinea pig small intestine). On the set-up: species or system Guinea pigs. The note with it: vs histamine; guinea pig small intestine; 37° C.; test compounds 10^-5 M; read-out: Antihistaminic activity (pA2) (converted).

Test [2] has as its target T2, contracturing effect of acetylcholine (Cavia porcellus, UniProt H0W1Z3).
T2 construct: Segments measuring 5-6 cm were drawn form the end portion of the small intestine; from tissue; host or cells: guinea pig terminal small intestine (ileum)
The test is described as follows: anticholinergic activity in vitro (contracturing effect of acetylcholine on isolated guinea pig small intestine). The arrangement: species or system Guinea pigs.

Test [3] concerns the target 5-HT2 receptors (Rattus norvegicus, UniProt P14842). The test is described as follows: affinity for 5-HT2 receptors (3H-spiroperidol binding), rat cortex membranes. The note with it: 3H-spiroperidol […]; rat frontal cortex membranes.
Test [4] has as its system rat sciatic nerve. The test is described as follows: local anaesthetic activity on sciatic nerve preparation in vitro. The note with it: read-out: ED50 (C.L. 95%).
Test [5] addresses T3, 5-HT3 receptors (Oryctolagus cuniculus, UniProt A0A5F9C9J3).
T3 construct: from tissue; host or cells: isolated rabbit vagus nerve
T3 sequence (A0A5F9C9J3 1-494): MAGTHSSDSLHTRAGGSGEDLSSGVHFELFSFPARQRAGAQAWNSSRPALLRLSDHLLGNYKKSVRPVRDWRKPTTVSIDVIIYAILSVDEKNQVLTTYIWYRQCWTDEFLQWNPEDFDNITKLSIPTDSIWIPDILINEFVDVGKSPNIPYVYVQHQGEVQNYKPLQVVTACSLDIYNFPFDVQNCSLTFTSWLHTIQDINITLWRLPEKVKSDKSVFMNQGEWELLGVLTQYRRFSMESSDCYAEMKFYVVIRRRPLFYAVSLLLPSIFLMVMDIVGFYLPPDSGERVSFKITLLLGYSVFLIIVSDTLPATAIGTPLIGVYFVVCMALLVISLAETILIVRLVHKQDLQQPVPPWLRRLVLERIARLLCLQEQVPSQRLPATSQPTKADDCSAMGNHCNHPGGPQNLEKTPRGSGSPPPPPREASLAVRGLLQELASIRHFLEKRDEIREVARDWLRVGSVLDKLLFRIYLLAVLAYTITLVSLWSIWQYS
Description: anti-5-HT3 activity in vitro on the isolated vagus nerve of rabbit. As to the method: (b) Evaluation of the anti-5-HT3 activity in vitro on the vagus nerve of rabbit. Male albino New Zeland rabbits weighing about 3 kg were sacrified by an air injection in the edge auriculaers vein. The two vagus nerves, drawn as soon as possible, were placed in a bath of Locke solution having the following composition: 154 mM NaCl; 5.5 mM KCl; 2.2 mM CaCl2; 5 mM glucose; 8 mM TRIS, the pH being adjusted at 7.6 by addition of HCl. Nerves were stripped of their epineurium and transferred into a device described by Kosterlitz H. W. et al., [J. Physiol., 183, IP-3P, (1966)] consisting of four compartments separated by means of 3 elastic membranes having a little hole through which the nerve passes. The glucose concentration perfusing a portion of the nerve was 315 mM. The overmaximal electric stimulation by a single shock at 10 seconds intervals elicited a potential visualized on a storage oscilloscope. In the potential the complexes due to the excitation of fibers A, B and C were distinguished. A serotonin solution applied to the nerve causes the dose-dependent fall of the potential for fibers C only. The non variation of the A-B complex when applying serotonin and the test compounds of formula I indicates on one hand the specific action of the substances for receptors relating to fibers C only (5-HT3 receptors) and on the other hand the absence of local-anaesthetic activity. Tests were performed at room temperature (24°-25° C.). The optimum maximum reduction of the potential of fibers C by serotonin resulted to be 44%. This reduction was adopted as maximum effect (100%). For each nerve a dose-response curve was constructed with cumulative doses of serotonin. After having washed serotonin and recovered the initial potential, the nerve was balanced with a fixed concentration of the compound of formula I for 60 minutes and successively the dose-response curve to serotonin was repeated, the compound of formula I being always present in the same concentration. After having applied a serotonin concentration sufficient to produce the highest effect, the preparation was washed and thereafter it was balanced again for 60 minutes with a solution of the same compound of formula I having a higher concentration. The procedure was then repeated. For each dose of the compound of formula I the test was repeated more than 5 times. The negative […] logarithm of the molar concentration of the compound of formula I which gives a 50% reduction of the effect of the agonist substance (pA2) was calculated. In table 7, the pA2 values of some compounds of formula I are reported.

Test [6] deals with 5-HT1 receptors. Description: affinity for 5-HT1 receptors (3H serotonin binding), rat cortex membranes. The note with it: 3H-serotonin 5 nM; rat frontal cortex membranes.
The test system of test [7] is Ca^++ receptors. The test is described as follows: displacement of 3H-nitrendipine from Ca++ receptors, rat brain membranes. Type of test: binding. The note with it: 3H-nitrendipine 1nM.
Test [8] deals with receptors for benzodiazepins. Description: displacement of 3H-flunitrazepam from benzodiazepine receptors, rat cerebral cortex membranes. The class given is binding. The note with it: 3H-flunitrazepam 1nM. (In general: Displacement assays read how much labelled ligand stays bound in the presence of the test substance.)
Test [9] relates to guinea pig back. The test is described as follows: local anaesthetic activity in the test of the guinea pig back in vivo (intracutaneous infiltration). The note with it: guinea pig back, cutaneous anaesthesia, 0.25 ml. How it is done: (b) Evaluation of the local anaesthetic activity in the test of the guinea pig back in vivo in comparison with lidocaine.
The local anaesthetic activity was evaluated by the method of intracutaneous infiltration in the guinea pig back as described by Bulbring E. and Wajda I. [(J. Pharmacol. Exp. Ther. 85, 78, (1945)].
Female guinea pigs weighin 400-500 g were treated intracutaneously in 4 points of their back.
At 5 minutes intervals, it was determined the reactivity of the animal to pain in each area by considering the number of responses to 6 pain stimulations.
Compounds of formula I, compound R and lidocaine, dissolved at different concentration in physiological solution adjusting the pH at 7 by addition of NaHCO3 were injected under the skin at the constant volume of 0.25 ml.
The distribution of the treatments in the 4 areas of the back was carried out according to the scheme of the Latin square. Experiments were carried out in blind.
As an example, the ED50 values for compound No. 8, compound R and lidocaine determined at 5, 15 and 30 minutes after the administration are reported in table 4.

[10] abbreviates: vs acetylcholine, guinea pig small intestine, 37° C., test compounds 10^-5 M, read-out: Antichlonergic activity (pA2) (converted).

SMILES strings stand for the structures. Where a name gives a salt, the structure may show the parent alone. Read-outs that look alike come from different tables or passages of the source.

T1 sequence (P31389 whole entry): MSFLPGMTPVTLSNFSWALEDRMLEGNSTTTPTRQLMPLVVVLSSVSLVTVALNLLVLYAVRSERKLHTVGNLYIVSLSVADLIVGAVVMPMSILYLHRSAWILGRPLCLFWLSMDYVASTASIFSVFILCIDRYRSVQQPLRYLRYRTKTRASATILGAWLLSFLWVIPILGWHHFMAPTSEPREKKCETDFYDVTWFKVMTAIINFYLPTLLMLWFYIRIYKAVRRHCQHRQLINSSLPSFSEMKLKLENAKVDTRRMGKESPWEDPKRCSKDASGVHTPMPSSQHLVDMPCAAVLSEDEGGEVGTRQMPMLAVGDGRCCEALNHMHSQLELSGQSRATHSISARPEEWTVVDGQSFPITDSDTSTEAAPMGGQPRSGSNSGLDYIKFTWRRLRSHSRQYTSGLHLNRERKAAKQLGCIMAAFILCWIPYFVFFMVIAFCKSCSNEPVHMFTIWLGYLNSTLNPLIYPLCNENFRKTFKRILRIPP
T2 sequence (H0W1Z3 1-590): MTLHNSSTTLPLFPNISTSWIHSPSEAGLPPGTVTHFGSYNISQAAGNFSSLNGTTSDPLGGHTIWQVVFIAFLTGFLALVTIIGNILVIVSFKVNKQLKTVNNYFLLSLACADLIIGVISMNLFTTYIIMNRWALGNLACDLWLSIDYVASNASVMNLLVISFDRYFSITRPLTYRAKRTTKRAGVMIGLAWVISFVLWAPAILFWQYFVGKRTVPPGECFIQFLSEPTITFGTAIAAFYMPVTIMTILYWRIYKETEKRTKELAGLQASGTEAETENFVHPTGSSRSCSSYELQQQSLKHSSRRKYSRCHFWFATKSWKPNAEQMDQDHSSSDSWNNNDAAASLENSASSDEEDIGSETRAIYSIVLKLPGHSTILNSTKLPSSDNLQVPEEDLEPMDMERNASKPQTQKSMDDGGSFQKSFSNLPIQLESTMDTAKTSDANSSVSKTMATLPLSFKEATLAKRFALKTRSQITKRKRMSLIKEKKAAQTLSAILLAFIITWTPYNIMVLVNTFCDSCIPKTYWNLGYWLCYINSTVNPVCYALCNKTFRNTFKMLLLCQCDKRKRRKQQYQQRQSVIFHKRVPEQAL
5-HT2 receptors, sequence (P14842 whole entry): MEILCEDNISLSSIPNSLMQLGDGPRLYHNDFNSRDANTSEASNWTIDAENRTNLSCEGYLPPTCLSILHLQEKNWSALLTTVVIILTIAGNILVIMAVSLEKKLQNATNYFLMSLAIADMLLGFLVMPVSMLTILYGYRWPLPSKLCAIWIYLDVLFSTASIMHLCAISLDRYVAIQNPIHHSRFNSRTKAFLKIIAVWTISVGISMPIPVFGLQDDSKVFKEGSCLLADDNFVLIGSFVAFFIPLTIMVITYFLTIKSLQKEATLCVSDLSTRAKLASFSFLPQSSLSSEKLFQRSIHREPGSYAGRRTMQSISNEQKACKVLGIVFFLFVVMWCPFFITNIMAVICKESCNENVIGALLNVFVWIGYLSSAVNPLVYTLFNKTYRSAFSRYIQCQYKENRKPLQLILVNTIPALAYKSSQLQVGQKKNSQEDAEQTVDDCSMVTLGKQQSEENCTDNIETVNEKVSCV

As for `CCN1CCCC(NC(=O)c2cc(C)on2)C1` (stereo not shown) [Compound 14, N-(1-ethyl-3-piperidinyl)-5-methylisoxazole-3-carboxamide], the Kb in test [1] was 316 µM.
Regarding `Cc1cc(C(=O)OC2CCCN(C)C2)no1` (stereo not shown) [Compound 10, 5-methylisoxazole-3-carboxylic acid 3-(1-methylpiperidinyl) ester hydrochloride], the Kb is 50.1 µM in test [2] (setting [10]) and 200 µM in test [1]. Moreover, the “Affinity (IC50) to 5-HT2 receptors” value in test [3] is “inactive”.
Regarding `CN1[C@@H]2CC[C@H]1C[C@@H](OC(=O)c1cc(OCc3ccccc3)no1)C2` [Compound 3, 3-benzyloxyisoxazole-5-carboxylic acid 3-(endo-8-methyl-8-azabicyclo[3,2,1]octyl) ester hydrochloride], the Kb is 2 µM in test [2] and 2.51 µM in test [1].
`COc1cc(C(=O)O[C@H]2C[C@H]3CC[C@@H](C2)N3C)on1` [Compound 6, 3-methoxyisoxazole-5-carboxylic acid 3-(endo-8-methyl-8-azabicyclo[3,2,1]octyl) ester hydrochloride]: the IC50 in test [4] (rat, sciatic nerve, 8 min) is over 15 mM. The Kb in test [2] is 12.6 µM; in test [5], 1.26 nM; in test [1], 6.31 µM.
On to `Cc1cc(C(=O)N[C@@H]2C[C@H]3CC[C@@H](C2)N3C)no1` [Compound 15, N-[3-(exo-8-methyl-8-azabicyclo[3,2,1]octyl)]-5-methylisoxazole-3-carboxamide], for which, in test [1], the Kb is 50.1 µM.
Consider `Cc1cc(C(=O)N[C@H]2C[C@H]3CC[C@@H](C2)N3C)no1` [Compound 16, N-[3-(endo-8-methyl-8-azabicyclo[3,2,1]octyl)]-5-methylisoxazole-3-carboxamide], for which the Kb in test [2] was 126 µM; in test [1], 7.94 µM.
Consider `O=C(c1ccc(F)cc1)C1CCN(CCn2c(=O)[nH]c3ccccc3c2=O)CC1` [ketanserine, reference compound], for which the IC50 in test [6] is 10 µM.
Take `Cc1cc(C(=O)O[C@H]2C[C@H]3CC[C@@H](C2)[N+]3(C)C)no1` [Compound 18, endo-8,8-dimethyl-3-(5-methylisoxazole-3-carbonyloxy)-8-azoniabicyclo[3,2,1]octane bromide]: in test [4] (rat, sciatic nerve, 8 min), the IC50 was over 15 mM. Also, the Kb in test [2] was 6.31 µM; in [1], 15.8 µM. The “Affinity (IC50) to 5-HT1 receptors” value in [6] was “inactive”. The “Affinity (IC50) to 5-HT2 receptors” value in [3] is “inactive”.
Turning to `Cc1cc(C(=O)OC2CCN(C)CC2)no1` [Compound 9, 5-methylisoxazole-3-carboxylic acid 4-(1-methylpiperidinyl) ester hydrochloride], the IC50 in [4] (rat sciatic nerve in vitro, 8 minutes contact) is over 15 mM. Moreover, the Kb in test [2] (setting [10]) is 25.1 µM; in test [1], 10 µM.
`NCCc1c[nH]c2ccc(O)cc12` [serotonin, reference compound]: in test [5] (serotonin applied to rabbit vagus nerve, 24°-25° C.), the “optimum maximum reduction of the potential of fibers C” value was 44%.
For the compound `Cc1cc(C(=O)NC2CN3CCC2CC3)no1` (stereo not shown) [Compound 17, N-[3-(1-azabicyclo[2,2,2]octyl)]-5-methylisoxazole-3-carboxamide], the Kb in test [1] is 50.1 µM.
Consider `Cc1cc(C(=O)O[C@H]2C[C@H]3CC[C@@H](C2)N3C)on1` [Compound 5, 3-methylisoxazole-5-carboxylic acid 3-(endo-8-methyl-8-azabicyclo[3,2,1]octyl) ester hydrochloride], for which the “Displacement activity at receptors of Ca++” value in test [7] is “inactive”. For the same compound, the Kb in test [2] is 31.6 µM; in [5] it was 1.58 nM; in [1], 12.6 µM. Further, the “Displacement activity at benzodiazepine receptors” value in [8] was “inactive”.
Take `CN1C(=O)CN=C(c2ccccc2)c2cc(Cl)ccc21` [diazepam, reference compound]: in test [8], the “Displacement activity at benzodiazepine receptors” value was 4.
Regarding `CCN(CC)CC(=O)Nc1c(C)cccc1C` [lidocaine], the IC50 in [4] (rat, sciatic nerve, 8 min) worked out at 0.6 mM. Besides, the “ED50 (C.L. 95%), 5 min.” value in test [9] (5 min. after administration) is reported as 5.8 (4.9-6.8) mM. The “ED50 (C.L. 95%), 15 min.” value in test [9] (15 min. after administration) is 7.6 (6.8-8.4) mM. Also, in test [9] (30 min. after administration), the “ED50 (C.L. 95%), 30 min.” value was 15.2 (13.8-16.6) mM.
